The source of these data is PMC12501029, “Discovery of a CNS active GSK3 degrader using orthogonally reactive linker screening” (Nature Communications, 2025).

The term AUC(0-t) denotes the area under the concentration-time curve up to a stated or last time point. The low end stands for low exposure, the high end for high exposure.

In data set [1] the target is T1, GSK3β-HiBiT (Homo sapiens, UniProt P49841).
T1 construct: we generated endogenously tagged GSK3β-HiBiT knock-in (KI) HEK293 cells; endogenous in cells; host or cells: GSK3β-HiBiT KI HEK293 cells, transiently transfected with LgBit (Promega)
T1 sequence (P49841 whole entry): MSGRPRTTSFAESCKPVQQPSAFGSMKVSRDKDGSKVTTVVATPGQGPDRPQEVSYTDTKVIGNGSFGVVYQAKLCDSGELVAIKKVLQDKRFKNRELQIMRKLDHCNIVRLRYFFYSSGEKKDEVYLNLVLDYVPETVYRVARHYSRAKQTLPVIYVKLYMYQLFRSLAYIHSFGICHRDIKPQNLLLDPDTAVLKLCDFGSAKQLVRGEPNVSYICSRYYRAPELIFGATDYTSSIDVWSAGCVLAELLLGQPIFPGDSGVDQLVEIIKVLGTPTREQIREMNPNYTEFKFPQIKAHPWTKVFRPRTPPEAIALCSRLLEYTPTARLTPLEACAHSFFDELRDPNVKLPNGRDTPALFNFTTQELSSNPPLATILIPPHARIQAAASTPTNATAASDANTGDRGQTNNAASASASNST
T1 sequence (Q96SW2 whole entry partner): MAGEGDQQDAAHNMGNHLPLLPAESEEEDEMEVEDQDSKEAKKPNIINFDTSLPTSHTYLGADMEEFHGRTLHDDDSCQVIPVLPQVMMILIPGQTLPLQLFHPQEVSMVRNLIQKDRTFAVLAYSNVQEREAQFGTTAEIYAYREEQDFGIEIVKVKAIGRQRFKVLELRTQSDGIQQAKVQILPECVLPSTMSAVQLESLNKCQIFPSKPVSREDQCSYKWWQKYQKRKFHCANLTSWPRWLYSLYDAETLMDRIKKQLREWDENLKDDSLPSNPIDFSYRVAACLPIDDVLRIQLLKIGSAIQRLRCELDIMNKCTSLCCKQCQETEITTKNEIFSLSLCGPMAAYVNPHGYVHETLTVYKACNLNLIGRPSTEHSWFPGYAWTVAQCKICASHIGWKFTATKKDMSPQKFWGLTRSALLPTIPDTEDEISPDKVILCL
Put plainly: Kinetic live cell degradation assay (LgBit transfected GSK3β-HiBiT KI HEK293 cells). Type of data set: cell-based. The method, then: For kinetic degradation assays, GSK3β-HiBiT KI HEK293 cells were reverse transfected into white bottom opaque 96-well assay plates. Briefly, GSK3β-HiBiT KI HEK293 cell suspension at a density of 2 × 10^6 per mL was prepared in standard culturing media. 10 mL of cell suspension mixed with transfection mix (1 mL of OptiMEM (Gibco) containing 3:1 ratio of FuGENE HD (Promega) and LgBit (Promega)). Then, cells were seeded into 96-well assay plate as a 100 µL cell suspension per well. After 24 h of transfection, the cell media was removed and 90 µL of CO2-independent medium supplemented with 10% FBS (Gibco) and 1:100 dilution of Endurazine (Promega) and incubated for 2.5 h at 37 °C. Test compounds were added onto cells and luminescence signals were monitored and recorded on GloMAX discover plate reader (Promega) in kinetic mode every 5 min. Data were normalised to DMSO conditions and plotted over time and degradation rates were calculated via Michaelis–Menten non-linear fitting analysis using GraphPad Prism (v10.1.2).
(In general: With HiBiT, luminescence reflects the tagged protein that the partner subunit can reach.)

Data set [2] is described as follows: Plasma protein binding, equilibrium dialysis, mouse. Type of data set: in vitro ADME. As to conditions: female, CD1, mouse. The method, then: (§1) A 96-well equilibrium dialysis apparatus was used to determine the free fraction in plasma for each compound (HT Dialysis LLC, Gales Ferry, CT). Membranes (12–14 kDA cut-off) were conditioned in deionised water for 60 min, followed by conditioning in 80:20 deionised water: ethanol for 20 min, and then rinsed in isotonic buffer before use. Female CD1 mouse, Male rat Han Wistar and human plasma was removed from the freezer and allowed to thaw on the day of experiment. Thawed plasma was then centrifuged (Allegra X12-R, Beckman Coulter, USA), spiked with test compound (final concentration 10 μg/mL), and 150 μL aliquots (n = 6 replicate determinations) loaded into the 96-well equilibrium dialysis plate. Dialysis vs isotonic buffer (150 μL) was carried out for 5 h in a temperature-controlled incubator at ca. 37 °C (Barworld Scientific Ltd, UK) using an orbital microplate shaker at 100 revolutions/minute (Barworld Scientific Ltd, UK). At the end of the incubation period, 50 μL aliquots of plasma or buffer were transferred to a 96-well 2.1 mL Waters ^TM plate and the composition in each well balanced with control fluid (50 μL), such that the volume of buffer to plasma is the same. Sample extraction was performed by the addition of 200 μL of acetonitrile containing an appropriate internal standard. Samples were allowed to mix for 1 min and then centrifuged at 3000 rpm in 96-well blocks for 15 min (Allegra X12-R, Beckman Coulter, USA), after which 150 μL of supernatant was removed to 50 μL of water. All samples were analysed by UPLC-MS/MS. The unbound fraction was determined as the ratio of the peak area in buffer to that in plasma.
(In general: In equilibrium dialysis free small molecules cross a membrane that holds back macromolecules.)

Data set [3] in a line: Plasma protein binding, equilibrium dialysis, rat. Type of data set: in vitro ADME. As to conditions: male, Han Wistar, 5 h dialysis, read-out: Plasma Protein Binding (Fu) Rat. On the procedure: as §1, with “Sample extraction was performed by the addition of 200 μL of acetonitrile containing an appropriate internal standard. Samples were allowed to mix for 1 min and then centrifuged at 3000 rpm in 96-well blocks for 15 min (Allegra X12-R, Beckman Coulter, USA), after which 150 μL of supernatant was removed to 50 μL of water.” left out

Data set [4] in a line: Plasma protein binding, equilibrium dialysis, human. Type of data set: in vitro ADME. Conditions: 5 h dialysis, read-out: Plasma Protein Binding (Fu) Hu. On the procedure:
as §1, with “Sample extraction was performed by the addition of 200 μL of acetonitrile containing an appropriate internal standard. Samples were allowed to mix for 1 min and then centrifuged at 3000 rpm in 96-well blocks for 15 min (Allegra X12-R, Beckman Coulter, USA), after which 150 μL of supernatant was removed to 50 μL of water.” left out

Data set [5] is described as follows: Cassette PK study with 22, 25 and 26. In kind it is in vivo, female Balb/c mice. As to conditions: i.v. bolus cassette 0.5 mg/kg; for AUC(0-t) / clearance: female, Balb/c, mouse, iv, whole blood; for clearance: read-out: Cl_obs. An excerpt: Fifteen female mice of the Balb/c strain were obtained from Charles River Laboratories, UK. Animals were maintained under a 12-h light/12-h dark cycle, in Thoren mouse caging containing EC0 aspen bedding (DBM, UK), with 'Sizzlenest' and 'Rodent Rolls' nesting material (DBM). Enrichment materials included aspen chew sticks, cardboard houses, tunnels, swings, and sunflower seeds. All animals had ad libitum access to food (5LF2 Extruded Diet, IPS Ltd, UK) and tap water throughout. Temperature and relative humidity were maintained between 19 °C–24 °C and 45%–65%, respectively. All animals received a minimum of 10 days of acclimatisation prior to the start of the study.
The cassette formulation (22, 25 and 26) was prepared by producing separate stock solutions of each compound dissolved in DMSO (dimethyl sulfoxide) at a concentration of 6 mg/mL. Aliquots of each stock solution were combined in equal parts to produce a stock solution containing 2 mg/mL of each compound. This solution was then diluted with Polyethylene glycol 400 (PEG400), followed by drop-wise addition of sterile water. The final formulation consisted of 5% DMSO, 40% PEG400, and 55% water, and contained 0.1 mg/mL of each compound. For the cassette PK study, three female Balb/c mice were dosed via a bolus intravenous injection at a dose level of 0.5 mg/kg per compound (5 mL/kg). Serial blood samples (10 µL per sample) were collected from the lateral tail vein of each mouse at 5, 15 and 30 min, 1, 2, 4, 6, 8, and 24 h after dose administration. All blood samples were diluted into 90 µL of Milli‑Q ultrapure water and stored at −20 °C prior to bioanalysis. The concentration of 22, 25 and 26 in blood and brain was determined by UPLC-MS/MS.
Blood samples (10 µL) from study mice were diluted 1× with 90 µL of water immediately when the sample was taken. All calibration, quality control, blanks and double blank samples (all 100 µL volume) were mixed (vortexed) with 300 µL of LCMS grade acetonitrile to precipitate proteins.
For study samples, a volume (30 µL) was mixed (vortexed) with a volume (90 µL) of acetonitrile to precipitate proteins. After protein precipitation, all samples were centrifuged to pellet the proteins. Study samples in Micronics tubes were centrifuged using a Beckman Coutler Allegra C-12R Centrifuge for 10 min at 3750 rpm. All other samples in Eppendorf tubes were centrifuged using a Sigma SciQuip 1–14 centrifuge for 10 min (14,800 rpm/16,163 × g). Supernatant from study samples (80 µL) and calibration samples, QCs, blanks, and double blanks (200 µL) were then transferred to HPLC glass vials containing Milli-Q water (40 µL or 100 µL, respectively), ready for LCMS analysis.

The mark [6] stands for this setting: 10 μg/mL, 5 h dialysis, read-out: Plasma Protein Binding (Fu) Mu.

As for `Cn1nc(N2CCC(=O)NC2=O)c2ccc(CN3CCN(CCCc4cn(-c5ccc(-c6cn7nccc(C(=O)Nc8cnccc8N8CCOCC8)c7n6)cc5)nn4)CC3)cc21` [compound 26], in data set [1] (10 nM, after 2 h), the “degradation of GSK3β in live cells” value is “almost complete degradation”. For the same compound, the fraction unbound at 5 h, 10 μg/mL in data set [2] (setting [6]) amounted to 0.021. The fraction unbound at 5 h, 10 μg/mL in data set [3] was found to be 0.01. In addition, the fraction unbound at 5 h, 10 μg/mL in data set [4] was found to be 0.05. Further, in data set [5], the AUC(0-t) is 590 ng·h/mL, the clearance came out at 8 mL/min/kg, the Cl_obs entry is on record as “moderate” and the Half_Life was 2.7 h. The Vss_obs in data set [5] was determined as 1.9 L/kg.
Consider `Cn1nc(N2CCC(=O)NC2=O)c2ccc(CN3CCN(Cc4ccc(-c5cn(-c6ccc(-c7cn8nccc(C(=O)Nc9cnccc9N9CCOCC9)c8n7)cc6)nn5)nc4)CC3)cc21` [compound 24], for which the “maximal degradation rate (λmax)” value in data set [1] (live cell, Michaelis-Menten fit) was ~ 1.0 h^−1. In addition, the fraction unbound at 5 h, 10 μg/mL is 0.0052 in data set [2] (setting [6]); 0.005 in data set [2] (equilibrium dialysis, read-out: unbound fraction in mouse plasma); 0.00064 in data set [3]; 0.0072 in data set [4].
For `O=C1CCC(NC(=O)c2ccc(CN3CCN(Cc4ccc(-c5cn(-c6ccc(-c7cn8nccc(C(=O)Nc9cnccc9N9CCOCC9)c8n7)cc6)nn5)nc4)CC3)cn2)C(=O)N1` (stereo not shown) [compound 22], in data set [5], the AUC(0-t) was 444 ng·h/mL, the clearance is 12 mL/min/kg, the Cl_obs entry is “moderate” and the Half_Life stood at 2.8 h. Moreover, the Vss_obs in data set [5] is 2.8 L/kg.
